Results from paper PMC5927461, “Activation of host transient receptor potential (TRP) channels by praziquantel stereoisomers” (PLoS Neglected Tropical Diseases, 2018).
“Also recorded” adds a separate entry of the source. Like-named read-outs stand apart in the source and are kept apart here.

What was measured:
hTRPM8 [1] = molecular target: T1, hTRPM8 (Homo sapiens, UniProt Q7Z2W7); parameters: host or cells: HEK293 (ATCC CRL-1573.3), transient; method as in PMID 29054683; conditions: by microfluorimetry; partial agonist; cited from earlier work
T1 sequence (Q7Z2W7 whole entry): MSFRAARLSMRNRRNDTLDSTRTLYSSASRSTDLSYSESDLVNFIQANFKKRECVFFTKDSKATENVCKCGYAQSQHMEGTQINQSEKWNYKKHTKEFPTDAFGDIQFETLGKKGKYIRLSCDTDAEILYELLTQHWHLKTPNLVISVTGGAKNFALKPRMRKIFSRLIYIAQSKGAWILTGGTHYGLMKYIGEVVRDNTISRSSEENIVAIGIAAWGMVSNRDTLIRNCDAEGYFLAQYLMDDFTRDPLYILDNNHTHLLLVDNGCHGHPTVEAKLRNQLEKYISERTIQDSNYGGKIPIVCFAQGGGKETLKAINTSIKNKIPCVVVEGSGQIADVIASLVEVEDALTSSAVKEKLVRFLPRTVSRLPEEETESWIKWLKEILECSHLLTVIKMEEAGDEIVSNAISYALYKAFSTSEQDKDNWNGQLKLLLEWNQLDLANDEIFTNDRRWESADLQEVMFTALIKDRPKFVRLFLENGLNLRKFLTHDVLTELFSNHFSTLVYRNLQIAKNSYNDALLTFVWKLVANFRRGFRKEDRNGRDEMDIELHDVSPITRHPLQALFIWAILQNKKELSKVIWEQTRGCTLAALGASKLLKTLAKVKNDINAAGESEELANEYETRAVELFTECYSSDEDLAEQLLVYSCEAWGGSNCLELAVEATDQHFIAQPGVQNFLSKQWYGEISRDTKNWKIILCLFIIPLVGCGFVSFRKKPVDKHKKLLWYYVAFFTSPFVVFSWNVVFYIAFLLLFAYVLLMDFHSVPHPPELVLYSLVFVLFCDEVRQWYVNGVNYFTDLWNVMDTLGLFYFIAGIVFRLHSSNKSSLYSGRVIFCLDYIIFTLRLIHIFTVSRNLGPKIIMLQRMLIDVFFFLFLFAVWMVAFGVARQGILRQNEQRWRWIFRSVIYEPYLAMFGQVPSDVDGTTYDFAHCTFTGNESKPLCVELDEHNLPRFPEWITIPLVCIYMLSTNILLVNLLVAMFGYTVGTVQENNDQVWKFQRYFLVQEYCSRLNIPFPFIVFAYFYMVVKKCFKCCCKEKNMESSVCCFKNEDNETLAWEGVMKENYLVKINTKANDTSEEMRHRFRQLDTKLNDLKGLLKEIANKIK

TRPA1 = tested on: TRPA1; parameters: method as in PMID 29054683; conditions: ≤100μM; cited from earlier work
[2] = tested on: mouse mesenteric arteries; assay: Wire myography, mesenteric artery strips at resting (basal) tone; conditions: 100μM added at basal tone
hTRPA1 = hTRPA1 (Homo sapiens, UniProt O75762); assay: Single cell confocal Ca2+ imaging (fluo-4) in transfected HEK293 cells; type: cell-based; parameters: host or cells: HEK293 (ATCC CRL-1573.3), transient; conditions: 100μM
hTRPA1, sequence (O75762 whole entry, the tested form may be a part): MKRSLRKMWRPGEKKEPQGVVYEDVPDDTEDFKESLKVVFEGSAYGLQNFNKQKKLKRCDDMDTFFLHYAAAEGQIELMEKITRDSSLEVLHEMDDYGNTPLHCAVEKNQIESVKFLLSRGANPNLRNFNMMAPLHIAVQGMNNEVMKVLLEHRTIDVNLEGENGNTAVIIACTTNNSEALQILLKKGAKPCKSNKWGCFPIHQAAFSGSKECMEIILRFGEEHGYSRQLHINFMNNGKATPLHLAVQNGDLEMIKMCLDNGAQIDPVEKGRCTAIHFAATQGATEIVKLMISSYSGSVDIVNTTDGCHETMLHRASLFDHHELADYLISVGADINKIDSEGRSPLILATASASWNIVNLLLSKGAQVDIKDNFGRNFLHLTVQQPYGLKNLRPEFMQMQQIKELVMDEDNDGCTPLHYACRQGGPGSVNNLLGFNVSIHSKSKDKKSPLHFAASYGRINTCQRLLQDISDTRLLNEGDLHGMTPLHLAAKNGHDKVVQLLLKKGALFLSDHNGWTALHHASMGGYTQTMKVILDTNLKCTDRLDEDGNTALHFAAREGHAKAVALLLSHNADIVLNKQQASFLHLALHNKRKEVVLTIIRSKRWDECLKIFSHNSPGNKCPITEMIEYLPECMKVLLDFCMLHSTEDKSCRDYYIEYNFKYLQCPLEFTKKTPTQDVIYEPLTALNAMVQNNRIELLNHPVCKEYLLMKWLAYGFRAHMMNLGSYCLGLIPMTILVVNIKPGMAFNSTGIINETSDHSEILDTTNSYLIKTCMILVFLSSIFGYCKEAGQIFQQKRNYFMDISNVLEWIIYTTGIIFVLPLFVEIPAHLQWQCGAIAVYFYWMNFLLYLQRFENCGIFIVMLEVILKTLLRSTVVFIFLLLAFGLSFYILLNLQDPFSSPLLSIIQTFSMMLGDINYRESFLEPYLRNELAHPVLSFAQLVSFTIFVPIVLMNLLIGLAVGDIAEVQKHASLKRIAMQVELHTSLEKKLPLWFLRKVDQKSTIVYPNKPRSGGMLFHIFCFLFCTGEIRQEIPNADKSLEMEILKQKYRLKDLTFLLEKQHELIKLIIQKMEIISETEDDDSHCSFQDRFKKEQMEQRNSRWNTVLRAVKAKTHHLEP
From the text: (§1) Human TRPM8 cDNA was a VersaClone from R&D Systems (RDC0188). Plasmids encoding human TRPA1 and human TRPV1 cDNA were purchased from DNASU plasmid repository (HsCD00080227 and HsCD00081472, respectively). The TRP channel coding sequences were subcloned into pCS2+ to introduce a COOH-term myc tag using the InFusion HD method (Clontech), HindIII/XhoI restriction enzymes (NEB) and the following primers: TRPM8 F–TGGGGACGTCGGAGC-aagctt-[…]; TRPM8 R–AAATCGATGGGATGC-ctcgag-[…]; TRPA1 F-GGACGTCGGAGC-aagctt- atgaagcgcagcctgagg; TRPA1 R-TCGATGGGATGC-ctcgag-[…]; TRPV1 F–GGACGTCGGAGC-aagctt-[…]; TRPV1 R-TCGATGGGATGC-ctcgag-cttctccccggaagcgg (where upper case specifies vector-specific sequences, italics indicate restriction sites, and lower case indicates TRP channel specific sequences). Primers are listed in a 5’ to 3’ orientation.
(§2) HEK293 cells (ATCC CRL-1573.3) were cultured in DMEM supplemented with 10% fetal bovine serum (FBS), penicillin (100 units/ml), streptomycin (100 μg/ml), and L-glutamine (290 μg/ml). Cells were transiently transfected (Lipofectamine LTX, Thermo Fisher) at a density of 2x10^6 cells per T-25 cell-culture flask with TRP channel cDNA. For Ca^2+ imaging assays, HEK293 cells were seeded onto 8-chambered coverglass slides (Thermo Fisher, 115411PK), at a density of 1x10^4 cells one day prior to imaging. Cells were washed twice with HBSS, and incubated with fluo-4-AM (4μM), pluronic F127 (0.4%) and probenecid (2.5mM) for 25 minutes at room temperature. Cells were then washed twice with HBSS, and left at room temperature (30 minutes) for de-esterification. Dishes were mounted on an Olympus IX81 microscope and fluorescence changes (λex = 488nM, λem = 513±15nm bandpass filter) monitored using a Yogokawa spinning disk confocal (CSU-X-M1N) and an Andor iXon Ultra 888 EMCCD camera.

hTRPM8 [3] = molecular target: T1, hTRPM8; assay: as above; type: cell-based; parameters: host or cells: HEK293 (ATCC CRL-1573.3), transient; conditions: for EC50: confocal imaging, Fig 4E, read-out: EC50, Ca2+ mobilization in TRPM8 expressing cells; for cytoplasmic Ca2+ signal in TRPM8 expressing cells: menthol 300μM, ±PZQ 100μM, (R)-PZQ or (S)-PZQ 50μM
From the text: as §1, §2

TRPV1 [4] = molecular target: T2, TRPV1 (Homo sapiens, UniProt Q8NER1); assay: TRP channel panel primary screen (FLIPR Calcium 5, stable HEK line); type: cell-based; conditions: 0.3-300μM
T2 sequence (Q8NER1 whole entry): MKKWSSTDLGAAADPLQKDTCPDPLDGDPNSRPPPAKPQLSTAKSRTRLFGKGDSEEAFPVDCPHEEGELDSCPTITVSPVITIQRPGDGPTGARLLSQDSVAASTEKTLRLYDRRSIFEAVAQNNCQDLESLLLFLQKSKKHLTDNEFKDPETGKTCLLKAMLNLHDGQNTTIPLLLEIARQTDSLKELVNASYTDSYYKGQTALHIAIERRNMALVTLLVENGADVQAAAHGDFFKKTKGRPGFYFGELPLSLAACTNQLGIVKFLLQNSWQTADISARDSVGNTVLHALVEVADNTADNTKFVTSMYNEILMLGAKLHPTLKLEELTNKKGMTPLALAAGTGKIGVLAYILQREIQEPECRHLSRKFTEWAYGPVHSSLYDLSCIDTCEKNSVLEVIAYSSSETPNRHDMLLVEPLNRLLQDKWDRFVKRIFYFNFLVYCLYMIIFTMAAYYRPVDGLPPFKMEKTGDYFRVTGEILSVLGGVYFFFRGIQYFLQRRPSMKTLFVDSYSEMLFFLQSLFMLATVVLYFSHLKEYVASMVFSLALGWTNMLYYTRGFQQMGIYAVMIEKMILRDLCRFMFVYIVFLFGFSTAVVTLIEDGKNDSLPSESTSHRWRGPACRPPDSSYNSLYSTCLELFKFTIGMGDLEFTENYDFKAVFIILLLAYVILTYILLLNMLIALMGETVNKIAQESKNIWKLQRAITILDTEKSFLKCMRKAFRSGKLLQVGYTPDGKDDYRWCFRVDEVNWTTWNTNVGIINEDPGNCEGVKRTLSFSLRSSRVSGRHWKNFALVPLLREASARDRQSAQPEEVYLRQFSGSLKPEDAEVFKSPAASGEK
Method: ±PZQ, (R)-PZQ and (S)-PZQ were screened against a panel of 17 human TRP channels (SB Drug Discovery, Glasgow). For all hTRPs, except for TRPM5, individual channel constructs were stably expressed in HEK cell lines. TRMP5 was expressed in a stable CHO cell line. In preparation for the assays, cells were trypsinized, counted and seeded (50,000 cells/well) in black, clear-bottomed 96 well plates and incubated overnight. The following day, cells were loaded with a fluorescent indicator (FLIPR Calcium 5 Assay kit for TRPA1, TRPV1, TRPV2, TRPV3, TRPV4, TRPV5, TRPC1, TRPM2, TRPM3 and TRPM8, or a membrane potential dye (FLIPR Membrane Potential Red Assay Kit for TRPC3, TRPC4, TRPC5, TRPC6, TRPC7, TRPM4 and TRPM5) prepared according to the manufacturer’s instructions in HEPES buffered Hank’s balanced salt solution (HBSS). Dye solution (10μl) was added to appropriate wells and incubated at 37°C for 1 hour. All assays were performed at room temperature. Compounds were tested at 0.3, 1, 3, 10, 30, 100μM and 300μM in triplicate in both agonist and antagonist mode to determine EC50 and IC50 values, which were compared with reference compounds. Compounds were screened at a final DMSO concentration of 0.5%. Plates were screened using a Flexstation (Molecular Devices, FX01138), monitoring fluorescence values every ~1.52 seconds. For ‘agonist mode’ testing, 10μl of the appropriate test compound, or standard agonist, was added after 20 seconds and fluorescence monitored for 2 minutes at λex = 485nm, λem = 525nm for Ca^2+ imaging and λex = 530nm, λem = 565nm for membrane potential measurements. For ‘antagonist mode’ testing, test compounds and standard inhibitors were added to appropriate wells and incubated for 10 minutes at room temperature prior to addition of standard agonist compound.

TRPV1 [5] = molecular target: T2, TRPV1; parameters: method as in PMID 29054683; conditions: 100μM; cited from earlier work
[6] = tested on: untransfected HEK293 cells; assay: Confocal Ca2+ imaging in untransfected HEK293 cells (control); type: cell-based, human; conditions: menthol 300μM, ±PZQ 100μM, ACh 100μM, capsaicin 1μM, AITC 100μM
Method: as §2

[7] = tested on: mesenteric vessels isolated from a TRPM8 knockout mouse; assay: Wire myography, KPSS-contracted mesenteric vessels from TRPM8 knockout mice; conditions: TRPM8 KO tissue; 50μM

Question: Which results are given for `O=C(C1CCCCC1)N1CC(=O)N2CCc3ccccc3C2C1` (racemic) [±PZQ, praziquantel]?
Answer: EC50 (hTRPM8 [1]): ~25 µM; activity against TRPA1 (TRPA1): lack of activity; change of tension at resting tone [2]: marked contraction; Ca2+ response in hTRPA1 expressing cells (hTRPA1): elicited Ca^2+ responses; EC50 (hTRPM8 [3]): 19 ± 5 µM; cytoplasmic Ca2+ signal in TRPM8 expressing cells (hTRPM8 [3]): evoked cytoplasmic Ca^2+ signals; activity against TRPV1 in primary screen (TRPV1 [4]): no activity; activation of TRPV1 (TRPV1 [5]): low potency activation; Ca2+ response in untransfected HEK293 cells [6]: neither ±PZQ or menthol elevated cytoplasmic Ca^2+ levels; also recorded: neither the addition of the TRPV1 agonist capsaicin (1μM) nor addition of ±PZQ evoked a Ca^2+ response; also recorded: without effect

Question: With `O=C(C1CCCCC1)N1CC(=O)N2CCc3ccccc3[C@H]2C1` [(S)-PZQ] as the molecule, how does the “Ca2+ response in hTRPA1 expressing cells” value (hTRPA1) read?
Answer: Its value is “activation of hTRPA1”.

Question: And the EC50 (hTRPM8 [3])?
Answer: Its EC50 is 19.2 ± 5.3 µM.

Question: What about the “cytoplasmic Ca2+ signal in TRPM8 expressing cells” value (hTRPM8 [3]) of the same molecule?
Answer: The value was “evoked cytoplasmic Ca^2+ signals”.

Question: What about the extent of relaxation [7] of the same molecule?
Answer: The extent of relaxation was ~ 30 % of peak KPSS-evoked tone.
